Patent publication US20100190225A1, “D-PSICOSE PRODUCTION METHOD BY D-PSICOSE EPIMERASE” (CJ CHEILJEDANG CORP., priority 2005, published 2010)
Read-outs that look alike come from different tables or passages of the source.

Assays:
psicose 3-epimerase [1] = biological target: T1, psicose 3-epimerase (Agrobacterium fabrum, UniProt A9CH28); format: biochemical; settings: for Relative activity (%): 1 mM metal ion added or EDTA treatment, 1.0% D-fructose, pH 7.5, 50° C., 20 minutes, None = 100; for effect of metal ion on enzyme activity: 1 mM metal ion, in words
T1 construct: made in house; host or cells: Escherichia coli BL21(DE3)
T1 sequence (A9CH28 with tags, fused parts or gaps): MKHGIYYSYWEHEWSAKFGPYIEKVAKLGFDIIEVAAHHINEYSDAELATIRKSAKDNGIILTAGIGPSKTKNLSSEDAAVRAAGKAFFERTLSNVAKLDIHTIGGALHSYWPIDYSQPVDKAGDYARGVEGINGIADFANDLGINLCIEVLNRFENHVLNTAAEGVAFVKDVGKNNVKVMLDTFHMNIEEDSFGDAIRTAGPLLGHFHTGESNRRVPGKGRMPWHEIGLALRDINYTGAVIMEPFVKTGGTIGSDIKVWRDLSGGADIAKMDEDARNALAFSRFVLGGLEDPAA
Experimental: The enzyme activity was measured by using D-fructose as a substrate. For the measurement of the enzyme activity, psicose 3-epimerase was allowed to react with D-fructose in a 50 mM PIPES buffer solution containing 1.0% of D-fructose, at pH 7.5 and at 50° C. for 20 minutes, and then the reaction solution was heated at 100° C. for 5 minutes to terminate the reaction. […] For the purpose of easy comparison of the enzyme activity, one unit of psicose 3-epimerase is defined as the amount of the psicose 3-epimerase needed to produce 1 mole of D-psicose per one minute at pH 7.5 and at 50° C.
In order to investigate the effect of the addition of a metal ion, the enzyme activity of the psicose 3-epimerase was measured after treating the psicose 3-epimerase with EDTA, or after adding 1 mM each of the metal ions indicated in Table 1 below, to the psicose 3-epimerase. Reaction of the psicose 3-epimerase was performed in a 50 mM PIPES buffer solution containing 0.04 units/ml of the psicose 3-epimerase and 1.0% by weight of D-fructose at pH 7.5 and at 50° C. for 20 minutes, and then the reaction solution was heated at 100° C. for 5 minutes to terminate the reaction. Then, the enzyme activity of the psicose 3-epimerase was measured.

psicose 3-epimerase [2] = biological target: T1, psicose 3-epimerase; test: Substrate specificity of psicose 3-epimerase; format: biochemical; settings: for Relative activity (%) No metal ion added / Relative activity (%) Mn^2+ added: 10 mM monosaccharide as substrate, pH 7.5, 50° C., 20 minutes
Experimental: In the current Experimental Example, MALDI-TOF-MS was used for the measurement of the molecular weight of psicose 3-epimerase, and cinnamic acid was used as a matrix. The enzyme activity was measured by using D-fructose as a substrate. For the measurement of the enzyme activity, psicose 3-epimerase was allowed to react with D-fructose in a 50 mM PIPES buffer solution containing 1.0% of D-fructose, at pH 7.5 and at 50° C. for 20 minutes, and then the reaction solution was heated at 100° C. for 5 minutes to terminate the reaction. The PIPES buffer solution containing D-fructose was prepared by dissolving D-fructose in PIPES buffer solution at pH 7 to 8 to a concentration of 60 to 70% by weight, and the PIPES buffer solution containing D-fructose was continuously added to a bioreactor maintained at 40 to 60° C. For the purpose of easy comparison of the enzyme activity, one unit of psicose 3-epimerase is defined as the amount of the psicose 3-epimerase needed to produce […] of D-psicose per one minute at pH 7.5 and at 50° C.
The concentrations of D-fructose, D-psicose, D-sorbose, D-tagatose, D-xylulose and D-ribulose were measured using a high pressure liquid chromatography system with a BP-100 calcium ion […] column and an RI detector. The column was conditioned to allow a flow of distilled water at a rate of 0.5 ml/min at 80° C.
Reaction of the psicose 3-epimerase was performed in a 50 mM PIPES buffer solution containing 0.04 units/ml of the psicose 3-epimerase and 10 mM each individually of the monosaccharides indicated in Table 2 below, at pH 7.5 and at 50° C. for 20 minutes, and then each of the reaction solutions were heated at 100° C. for 5 minutes to terminate the reaction. Then, the enzyme activity of the psicose 3-epimerase of each reaction solution was measured.

lipogenic enzymes = settings: dietary, in words; cited from earlier work
[3] = in words; cited from earlier work
[4] = Equilibrium between D-psicose and D-fructose achieved by psicose 3-epimerase; format: biochemical
Experimental: In Example 6, the reaction of the psicose 3-epimerase was performed in a 50 mM PIPES buffer solution containing 0.04 units of psicose 3-epimerase/ml, 1 mM of Mn^2+ ions, and 0.1% of D-psicose and D-fructose together, at pH 7.0 and at temperatures ranging from 30° C. to 60° C. for 24 hours to allow the reaction to proceed sufficiently, in order to determine the equilibrium between D-psicose and D-fructose. Then, the reactions were terminated by heating the reaction solution at 100° C. for 5 minutes, and the enzyme activity was measured.
As a result, the reaction was started with 5 initial ratios of D-psicose to D-fructose, of 0:100, 25:75, 50:50, 75:25, and 100:0, and the final ratios of D-psicose to D-fructose were determined after 24 hours of the reaction, as shown in FIG. 2. Referring to FIG. 2, the ratio of D-psicose to D-fructose was 32:68 at 30° C., while the same ratio was 37:63 at 60° C.

[5] = Activity of psicose 3-epimerase according to pH and temperature changes; format: biochemical
Experimental: In Example 5, the psicose 3-epimerase was reacted with D-fructose at various pH values and temperatures, and the enzyme activities obtained at the various pH values and temperatures were compared. In order to investigate the pH effect, the reaction of the psicose 3-epimerase was performed in a 50 mM PIPES buffer solution containing 0.04 units of psicose 3-epimerase/ml and 1.0% of D-fructose at pH values ranging from 6.5 to 7.5, and the same reaction was performed in a 50 mM EPPS buffer solution containing 0.04 units of psicose 3-epimerase/ml and 1.0% of D-fructose at pH values ranging from 7.5 to 8.5. Here, the respective reactions were performed at 50° C. when metal ions were not added, and at 60° C. when Mn ions were added, respectively for 20 minutes. Then, the reactions were terminated by heating the reaction solutions at 100° C. for 5 minutes, and the enzyme activities were measured. The results are illustrated in FIG. 1A.
In order to investigate the temperature effect, the reaction was performed in a 50 mM PIPES buffer solution containing 0.04 units of psicose 3-epimerase/ml and 1.0% of D-fructose at temperatures ranging from 30° C. to 70° C. for 20 minutes, at pH 7.5 when metal ions were not added, and at pH 7.0 when Mn ions were added. The reactions were terminated by heating the reaction solution at 100° C. for 5 minutes, and the enzyme activities were measured. The results are illustrated in FIG. 1B.

[6] = D-psicose production by free psicose 3-epimerase; format: biochemical; settings: 700 g/L D-fructose; for D-Psicose: 14 units/ml, 1 mM Mn^2+, pH 7.0, 60° C.
Experimental: In order to produce D-psicose at high concentrations, the reaction was performed in a 50 mM PIPES buffer solution containing 14 units of psicose 3-epimerase/ml, 1 mM of Mn^2+ ions, and 700 g/L of D-fructose, at pH 7.0 and at 60° C. for various reaction times. Then, the reaction was terminated by heating the reaction solution at 100° C. for 5 minutes, and the enzyme activity was measured.

In the case of `[Al+3]` [Al^3+], the “Relative activity (%)” value (psicose 3-epimerase [1]) is reported as 100%.

For `[Ba+2]` [Ba^2+], the “Relative activity (%)” value (psicose 3-epimerase [1]) was 95.6%.

With `[Ca+2]` [Ca^2+] the “Relative activity (%)” value (psicose 3-epimerase [1]) was 64.4%.

In the case of `[Co+2]` [Co^2+], the “Relative activity (%)” value (psicose 3-epimerase [1]) is reported as 268% and the “effect of metal ion on enzyme activity” value (psicose 3-epimerase [1]) is reported as “enhanced the enzyme activity”.

With `[Cu+2]` [Cu^2+] the “Relative activity (%)” value (psicose 3-epimerase [1]) was 2.2% and the “effect of metal ion on enzyme activity” value (psicose 3-epimerase [1]) was “suppressed the enzyme activity”.

In the case of `O=C(CO)[C@@H](O)[C@H](O)[C@H](O)COP(=O)(O)O` [D-Fructose-6-phosphate], the “Relative activity (%) No metal ion added” value (psicose 3-epimerase [2]) is reported as 0.0% and the “Relative activity (%) Mn^2+ added” value (psicose 3-epimerase [2]) is reported as 0.0%.

For `O=C(CO)[C@@H](O)[C@H](O)[C@H](O)CO` [D-Fructose], the “Relative activity (%) No metal ion added” value (psicose 3-epimerase [2]) was 37.9% and the “Relative activity (%) Mn^2+ added” value (psicose 3-epimerase [2]) was 139%.

In the case of `O=C(CO)[C@H](O)[C@H](O)[C@H](O)CO` [D-Psicose], the “Relative activity (%) No metal ion added” value (psicose 3-epimerase [2]) is reported as 100%, the “Relative activity (%) Mn^2+ added” value (psicose 3-epimerase [2]) is reported as 274% and the “affinity of the psicose 3-epimerase for substrate” value (psicose 3-epimerase [2]; D-psicose compared with D-tagatose, in words) is reported as “higher affinity”. For the same molecule, the “effect on activity of lipogenic enzymes” value (lipogenic enzymes) was “suppressing the activity of lipogenic enzymes” and the “metabolism in the human body” value [3] was “almost non-metabolizable”.

With `O=C(CO)[C@H](O)[C@H](O)COP(=O)(O)O` [D-Ribulose-5-phosphate] the “Relative activity (%) No metal ion added” value (psicose 3-epimerase [2]) was 0.0% and the “Relative activity (%) Mn^2+ added” value (psicose 3-epimerase [2]) was 0.0%.

In the case of `O=C(CO)[C@H](O)[C@H](O)CO` [D-Ribulose], the “Relative activity (%) No metal ion added” value (psicose 3-epimerase [2]) is reported as 10.2% and the “Relative activity (%) Mn^2+ added” value (psicose 3-epimerase [2]) is reported as 15.4%.

In the case of `O=C(CO)[C@H](O)[C@@H](O)[C@H](O)CO` [D-Sorbose], the “Relative activity (%) No metal ion added” value (psicose 3-epimerase [2]) is reported as 0.8% and the “Relative activity (%) Mn^2+ added” value (psicose 3-epimerase [2]) is reported as 1.7%.

In the case of `O=C(CO)[C@@H](O)[C@@H](O)[C@H](O)CO` [D-Tagatose], the “Relative activity (%) No metal ion added” value (psicose 3-epimerase [2]) is reported as 65.5% and the “Relative activity (%) Mn^2+ added” value (psicose 3-epimerase [2]) is reported as 92.3%.

With `O=C(CO)[C@@H](O)[C@H](O)CO` [D-Xylulose] the “Relative activity (%) No metal ion added” value (psicose 3-epimerase [2]) was 5.8% and the “Relative activity (%) Mn^2+ added” value (psicose 3-epimerase [2]) was 12.4%.

In the case of `O=C(O)CN(CCN(CC(=O)O)CC(=O)O)CC(=O)O` [EDTA], the “Relative activity (%)” value (psicose 3-epimerase [1]) is reported as 20.0%.

For `[Fe+3]` [Fe^3+], the “Relative activity (%)” value (psicose 3-epimerase [1]) was 121% and the “Relative activity (%)” value (psicose 3-epimerase [1]; listed as Fe^2+) was 139%.

In the case of `[Mg+2]` [Mg^2+], the “Relative activity (%)” value (psicose 3-epimerase [1]) is reported as 100%.

In the case of `[Mn+2]` [Mn^2+], the “Relative activity (%)” value (psicose 3-epimerase [1]) is reported as 274% and the “effect of metal ion on enzyme activity” value (psicose 3-epimerase [1]) is reported as “enhanced the enzyme activity”.

For `[Mo+2]` [Mo^2+], the “Relative activity (%)” value (psicose 3-epimerase [1]) was 93.3%.

With `[Zn+2]` [Zn^2+] the “Relative activity (%)” value (psicose 3-epimerase [1]) was 4.4% and the “effect of metal ion on enzyme activity” value (psicose 3-epimerase [1]) was “suppressed the enzyme activity”.

B1: psicose 3-epimerase: enzyme (SEQ ID NO:1) from Agrobacterium tumefaciens ATCC33970 that converts D-fructose to D-psicose; monomer, metalloenzyme (protein, listed as Agrobacterium tumefaciens)
chain: T1 sequence (A9CH28 with tags, fused parts or gaps)
With B1 the “superiority to the yield achievable by conventional methods of producing D-psicose” value [4] was “approximately 20%”, the “optimal pH” value ([5]; Mn^2+ ions added) was 7.0 and the optimal temperature ([5]; Mn^2+ ions added) was 60 °C. The “optimal pH” value ([5]; metal ions not added) was 7.5, the optimal temperature ([5]; metal ions not added) was 50 °C and the “D-Psicose” value ([6]; reaction time 0 min) was 0 g/L. The “D-Psicose” value ([6]; reaction time 10 min) was 93 g/L, the “D-Psicose” value ([6]; reaction time 30 min) was 155 g/L and the “D-Psicose” value ([6]; reaction time 60 min) was 180 g/L. The “D-Psicose” value ([6]; reaction time 120 min) was 211 g/L, the D-psicose conversion yield ([6]; reaction time 120 minutes) was 30.2% and the “D-Psicose” value ([6]; reaction time 180 min) was 210 g/L. The “D-Psicose” value ([6]; reaction time 240 min) was 210 g/L and the “D-Psicose” value ([6]; reaction time 300 min) was 209 g/L.
